The subject of data set [1] is Candida albicans. Put plainly: Antifungal activity against Candida albicans ATCC 10231 by broth dilution method. The format is functional.
For data set [2], the system named is Candida albicans. Briefly: Antifungal activity against Candida albicans CA5 by broth dilution method. The class given is functional.
The subject of data set [3] is Pichia kudriavzevii. Put plainly: Antifungal activity against Candida krusei ATCC 34135 by broth dilution method. The class given is functional.
The test system of data set [4] is Candida parapsilosis. Put plainly: Antifungal activity against Candida parapsilosis C27 by broth dilution method. The class given is functional. The note with it: Lodderomyces parapsilosis.
For another data set, the system named is Aspergillus fumigatus. Put plainly: Antifungal activity against Aspergillus fumigatus ATCC 13073 by broth dilution method. The format is functional.
Another data set deals with Fusarium oxysporum. Briefly: Antifungal activity against Fusarium oxysporum AB18 by broth dilution method. The class given is functional.
In a further data set the test system is Microsporum canis. Put plainly: Antifungal activity against Microsporum canis DMT2 by broth dilution method. The format is functional.
The subject of data set [5] is Trichophyton mentagrophytes. Briefly: Antifungal activity against Trichophyton mentagrophytes DMT4 by broth dilution method. The class given is functional.
Another data set deals with MRC5. Briefly: Cytotoxicity against human MRC5 cells after 48 hrs by MTT assay. The format is cell-based. The note with it: MRC5, 48 h.
The nature of data set [6]: Hemolytic effect in sheep RBC assessed as release of hemoglobin at MIC after 1 hr. The class given is ADME, cell-based, Ovis aries, Erythrocyte. To be noted: sheep red blood cells, read-out: Activity.
Data set [7] in a line: Hemolytic effect in sheep RBC assessed as release of hemoglobin at cytotoxic IC50 after 1 hr. The class given is cell-based, Ovis aries, Erythrocyte. To be noted: sheep red blood cells, read-out: Activity.
Data set [8] concerns Candida albicans. Put plainly: Induction of DNA intercalation with Candida albicans genomic DNA at 25 ug/ml after 12 hrs by ethidium bromide staining based gel electrophoresis method.
In data set [9] the test system is Candida albicans. Briefly: Antibiofilm activity against Candida albicans assessed as inhibition of Spider medium-induced hyphae formation at sub-MIC after 24 hrs by propidium iodide and FITC-conjugated concanavaline A staining based fluorescence microscopy. The class given is functional, organism-based.
Data set [10] relates to Candida albicans. Put plainly: Antibiofilm activity against Candida albicans ATCC 10231 assessed as disruption of preformed biofilm after 24 hrs by concanavalin A-FITC-staining based fluorescence microscopic analysis. The format is functional.
In data set [11] the test system is Pichia kudriavzevii. Put plainly: Antibiofilm activity against Pichia kudriavzevii ATCC 34135 assessed as disruption of preformed biofilm after 24 hrs by concanavalin A-FITC-staining based fluorescence microscopic analysis. The class given is functional.
Data set [12] concerns Candida parapsilosis. Put plainly: Antibiofilm activity against Candida parapsilosis C27 assessed as disruption of preformed biofilm after 24 hrs by concanavalin A-FITC-staining based fluorescence microscopic analysis. The class given is functional.
Data set [13] can be described thus: Induction of membrane damage in PC/PS liposome assessed as calcein release at MIC after 30 mins by fluorescence-based liposome leakage assay. The format is functional.

Consider 7 molecules from ChEMBL document CHEMBL3763135, “Synthesis and evaluation of thiophene-based guanylhydrazones (iminoguanidines) efficient against panel of voriconazole-resistant fungal isolates” (Bioorg Med Chem, 2016).

Converted amounts (≈) assume the structure as drawn. The source made the active and inactive calls. The calls are words filed in the database; no cut-off is given here.

For `Cl.N#Cc1ccc(-c2ccc(/C=N/NC(=N)N)s2)cc1`, the MIC was 3.9 µg/mL against Candida albicans [1]; 7.8 µg/mL with Candida albicans [2]; 25 µg/mL in the data set on Pichia kudriavzevii [3]; 12.5 µg/mL in the data set with Candida parapsilosis [4]; 25 µg/mL in the data set on Aspergillus fumigatus; greater than 250 µg/mL in the data set on Fusarium oxysporum. The MIC against Microsporum canis amounted to 0.97 µg/mL; in data set [5] it was 6.25 µg/mL. Besides, in the data set with MRC5, the IC50 turned out to be 5 µg/mL. In addition, the hemolysis at 1 h in data set [6] and in data set [7] was no more than 10% each time. Further, the result with Candida albicans [8] and with Candida albicans [9] was Active. Moreover, the MBEC is 250 µg/mL in the data set with Candida albicans [10], greater than 1000 µg/mL with Pichia kudriavzevii [11] and 1000 µg/mL in the data set on Candida parapsilosis [12].
As to `O=Cc1ccc(-c2ccccc2)s1`, the MIC against Candida albicans [1] was 250 µg/mL (≈ 1330 µM); in the data set on Candida albicans [2] it was 250 µg/mL (≈ 1330 µM); with Pichia kudriavzevii [3], greater than 250 µg/mL; against Candida parapsilosis [4], greater than 250 µg/mL; in the data set on Aspergillus fumigatus, 125 µg/mL (≈ 664 µM); in the data set with Fusarium oxysporum, 250 µg/mL (≈ 1330 µM). For the same molecule, the MIC (with Microsporum canis; in data set [5]) was 250 µg/mL (≈ 1330 µM) each time. For the same molecule, it took 50 µg/mL (≈ 266 µM) to reach half-maximal inhibition in the data set with MRC5 (IC50). The hemolysis at 1 h in data set [6] and in data set [7] was no more than 10% each time. In the data set on Candida albicans [8], the result was inactive. In the data set with Candida albicans [9], the result was Active. For the same molecule, the MBEC in the data set on Candida albicans [10], in the data set with Pichia kudriavzevii [11] and in the data set on Candida parapsilosis [12] was greater than 1000 µg/mL in each case.
In the case of `Cl.N=C(N)N/N=C/c1ccc(-c2ccccc2)s1`, the MIC with Candida albicans [1] is 1.95 µg/mL; against Candida albicans [2], 1.95 µg/mL; in the data set on Pichia kudriavzevii [3] it was 6.25 µg/mL; in the data set on Candida parapsilosis [4], 6.25 µg/mL; in the data set with Aspergillus fumigatus it was 25 µg/mL; in the data set with Fusarium oxysporum, 62.5 µg/mL. Besides, the MIC in the data set with Microsporum canis is 1.56 µg/mL; in data set [5], 3.12 µg/mL. In the data set with MRC5, this molecule displayed an IC50 of 5 µg/mL. For the same molecule, the hemolysis at 1 h in [6] and in data set [7] was no more than 10% each time. For the same molecule, the result in the data set with Candida albicans [8] and in the data set on Candida albicans [9] was Active. The values for the MBEC with Candida albicans [10], with Pichia kudriavzevii [11] and with Candida parapsilosis [12] were 1000 µg/mL, greater than 1000 µg/mL and greater than 1000 µg/mL, respectively.
`Cl.N=C(N)N/N=C/c1ccc(-c2ccc(F)cc2)s1`: the MIC was 3.9 µg/mL with Candida albicans [1]; 1.95 µg/mL with Candida albicans [2]; 6.25 µg/mL with Pichia kudriavzevii [3]; 6.25 µg/mL against Candida parapsilosis [4]; 25 µg/mL against Aspergillus fumigatus; greater than 250 µg/mL in the data set with Fusarium oxysporum. Also, the MIC stood at 0.97 µg/mL against Microsporum canis and 1.56 µg/mL in data set [5]. This molecule displayed an IC50 in the data set with MRC5 of 4 µg/mL. Also, the hemolysis at 1 h in data set [6] and in data set [7] was no more than 10% throughout. The outcome in the data set with Candida albicans [8] and in the data set on Candida albicans [9] was Active. Besides, the MBEC in the data set with Candida albicans [10], in the data set on Pichia kudriavzevii [11] and with Candida parapsilosis [12] was greater than 1000 µg/mL in each case.
On to `Cl.N=C(N)N/N=C/c1ccc(-c2ccccc2)o1`, for which the MIC worked out at 7.8 µg/mL with Candida albicans [1]; 15.6 µg/mL in the data set with Candida albicans [2]; 50 µg/mL against Pichia kudriavzevii [3]; 50 µg/mL in the data set on Candida parapsilosis [4]; 125 µg/mL in the data set on Aspergillus fumigatus; 125 µg/mL against Fusarium oxysporum. The MIC in the data set on Microsporum canis was 1.56 µg/mL; in data set [5] it was 6.25 µg/mL. The IC50 with MRC5 was determined as 20 µg/mL. Besides, the hemolysis at 1 h in data set [6] and in data set [7] was no more than 10% each time. The result in the data set with Candida albicans [8] and with Candida albicans [9] was Active. Besides, the MBEC is 500 µg/mL in the data set on Candida albicans [10], 500 µg/mL with Pichia kudriavzevii [11] and 1000 µg/mL with Candida parapsilosis [12].
On to `COc1ccc(-c2ccc(/C=N/NC(=N)N)s2)cc1.Cl`, for which the MIC with Candida albicans [1] was 7.8 µg/mL; in the data set on Candida albicans [2], 3.9 µg/mL; with Pichia kudriavzevii [3], 6.25 µg/mL; with Candida parapsilosis [4], 6.25 µg/mL; against Aspergillus fumigatus it was 25 µg/mL; against Fusarium oxysporum it was greater than 250 µg/mL. For the same molecule, the MIC was 0.97 µg/mL against Microsporum canis and 3.12 µg/mL in data set [5]. The molecule also yielded an IC50 with MRC5 of 5 µg/mL. The hemolysis at 1 h in [6] and in [7] was no more than 10% throughout. The outcome in the data set with Candida albicans [8] and with Candida albicans [9] was Active. The MBEC with Candida albicans [10] is 500 µg/mL; in the data set with Pichia kudriavzevii [11], 1000 µg/mL; in the data set on Candida parapsilosis [12] it was 1000 µg/mL.
For NYSTATIN, in data set [13], the Activity was 21%.
